Literature values as cited in patent publication US20230190776A1, “ENCAPSULATION OF BIOACTIVE INGREDIENTS BY MULTIPLEX EMULSION” (The Board of Regents of the University of Texas System, priority 2021, published 2023).

Conditions: up to 14 weeks of administrations; species not given

With `O=C1CCC[C@@H]2[C@H]3CCC[N+]4([O-])CCC[C@@H](CN12)[C@@H]34` (stereo partly shown) [Oxymatrine] as the molecule, how does the lethal dose read?
Its lethal dose is “around 300 mg/kg”.
